In patent US11020395B2, “Cycloalkyl substituted triazole compounds as agonists of the APJ receptor” (AMGEN INC., priority 2016, dated 2021):
Values belong to the compound of their own block, whether it stands above or below them.

Target: human APJ receptor (Homo sapiens (Human), UniProt P35414)
Test: [35S]GTPγS binding assay on membranes from CHO cells stably expressing human APJ receptor
Type: biochemical
Settings: [35S]GTPγS SPA, read-out: Activity hAPJ SPA EC50 IP
Procedure: [^35S]GTPγS Binding The human APJ receptor was cloned by polymerase chain reaction and the gene encoding the receptor was subcloned in pFLAG-CMV™-3 expression vector (Sigma, Saint Louis, Mo. USA) in-house at Amgen. A GTPγS binding assay was performed on membranes prepared from CHO cells stably expressing human APJ receptor. The optimum experimental conditions for the concentrations of GDP, MgCl2, and NaCl in the assay buffer were initially determined. […] Incubation was at RT for 90 min and the microplate was read using a ViewLux™ ultra HTS Microplate Imager (PerkinElmer, Inc.). All the results presented are means of several independent experiments and analyzed by non-linear regression methods using the commercially available program Prism (GraphPad, San Diego, Calif.) providing the EC50 values detailed in Table 25.

Sequence of human APJ receptor (P35414 whole entry): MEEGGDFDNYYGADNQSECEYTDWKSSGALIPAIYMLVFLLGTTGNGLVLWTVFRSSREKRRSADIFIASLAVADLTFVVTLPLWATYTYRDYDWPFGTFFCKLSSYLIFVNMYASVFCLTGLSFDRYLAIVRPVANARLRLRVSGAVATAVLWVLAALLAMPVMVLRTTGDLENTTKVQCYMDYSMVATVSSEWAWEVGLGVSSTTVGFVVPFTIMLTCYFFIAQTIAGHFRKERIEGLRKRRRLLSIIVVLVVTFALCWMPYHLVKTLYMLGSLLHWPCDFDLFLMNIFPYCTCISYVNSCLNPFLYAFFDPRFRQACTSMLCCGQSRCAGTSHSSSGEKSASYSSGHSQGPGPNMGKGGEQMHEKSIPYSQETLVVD

Compound: COc1cccc(OC)c1-n1c(NS(=O)(=O)[C@@H](C)[C@H](OC)c2ncc(Cl)cn2)nnc1[C@H]1C[C@H](OC)C1 (single isomer, unassigned) [Example 156.0, (1R,2S)-1-(5-chloropyrimidin-2-yl)-N-(4-(2,6-dimethoxyphenyl)-5-((1r,3S)-3-methoxycyclobutyl)-4H-1,2,4-triazol-3-yl)-1-methoxypropane-2-sulfonamide or (1R,2S)-1-(5-chloropyrimidin-2-yl)-N-(4-(2,6-dimethoxyphenyl)-5-((1s,3R)-3-methoxycyclobutyl)-4H-1,2,4-triazol-3-yl)-1-methoxypropane-2-sulfonamide]
EC50: 11 nM

Compound: COc1cccc(OC)c1-n1c(NS(=O)(=O)[C@@H](C)[C@H](OCC(F)F)c2ncc(C)cn2)nnc1C1CCC1 [Example 209.0]
EC50: 18 nM

Compound: COc1cccc(OC)c1-n1c(NS(=O)(=O)[C@@H](C)[C@@H](OC(C)C)c2ncc(C)cn2)nnc1[C@@H]1CCC[C@@H]1OC (single isomer, unassigned) [Example 233.0]
EC50: 94 nM

EC50: 38 nM
Compound: (1R,2S)-1-(5-chloropyrimidin-2-yl)-N-(4-(2,6-dimethoxyphenyl)-5-((R)-3-oxocyclopentyl)-4H-1,2,4-triazol-3-yl)-1-methoxypropane-2-sulfonamide or (1R,2S)-1-(5-chloropyrimidin-2-yl)-N-(4-(2,6-dimethoxyphenyl)-5-((S)-3-oxocyclopentyl)-4H-1,2,4-triazol-3-yl)-1-methoxypropane-2-sulfonamide [Example 224.0]

Compound: COc1cccc(OC)c1-n1c(NS(=O)(=O)[C@@H](C)[C@H](OC)c2ncc(Cl)cn2)nnc1C1CC2(CCC2)C1 [Example 236.0, (1R,2S)-1-(5-chloro-2-pyrimidinyl)-N-(4-(2,6-dimethoxyphenyl)-5-(spiro[3.3]heptan-2-yl)-4H-1,2,4-triazol-3-yl)-1-methoxy-2-propanesulfonamide]
EC50: 0.99 nM

Compound: COc1ncnc(OC)c1-n1c(NS(=O)(=O)[C@@H](C)[C@H](OC)c2ncc(Cl)cn2)nnc1[C@@H]1CC[C@@H]1F (single isomer, unassigned) [Example 179.0, (1R,2S)-1-(5-chloropyrimidin-2-yl)-N-(4-(4,6-dimethoxypyrimidin-5-yl)-5-((1S,2S)-2-fluorocyclobutyl)-4H-1,2,4-triazol-3-yl)-1-methoxypropane-2-sulfonamide or (1R,2S)-1-(5-chloropyrimidin-2-yl)-N-(4-(4,6-dimethoxypyrimidin-5-yl)-5-((1R,2R)-2-fluorocyclobutyl)-4H-1,2,4-triazol-3-yl)-1-methoxypropane-2-sulfonamide]
EC50: 46 nM

Compound: CC(C)O[C@@H](c1ncc(Cl)cn1)[C@H](C)S(=O)(=O)Nc1nnc(C2CCC2)n1C1CCOCC1 [Example 211.0, (1S,2S)-1-(5-chloro-2-pyrimidinyl)-N-(5-cyclobutyl-4-(tetrahydro-2H-pyran-4-yl)-4H-1,2,4-triazol-3-yl)-1-(2-propanyloxy)-2-propanesulfonamide]
EC50: 420 nM

Compound: COCC(COC)n1c(NS(=O)(=O)[C@@H](C)[C@H](OC)c2ncc(Cl)cn2)nnc1[C@H]1C[C@H](CO)C1 (single isomer, unassigned) [Example 131.0, (1R,2S)-1-(5-chloropyrimidin-2-yl)-N-(4-(1,3-dimethoxypropan-2-yl)-5-((1r,3S)-3-(hydroxymethyl)cyclobutyl)-4H-1,2,4-triazol-3-yl)-1-methoxypropane-2-sulfonamide or (1R,2S)-1-(5-chloropyrimidin-2-yl)-N-(4-(1,3-dimethoxypropan-2-yl)-5-((1s,3R)-3-(hydroxymethyl)cyclobutyl)-4H-1,2,4-triazol-3-yl)-1-methoxypropane-2-sulfonamide]
EC50: 110 nM

Compound: COc1cccc(OC)c1-n1c(NS(=O)(=O)[C@@H](C)[C@H](C)c2ncc(C)cn2)nnc1[C@H]1C[C@H](Cl)C1 (single isomer, unassigned) [Example 194.0, (2S,3R)-N-(5-((1r,3S)-3-chlorocyclobutyl)-4-(2,6-dimethoxyphenyl)-4H-1,2,4-triazol-3-yl)-3-(5-methylpyrimidin-2-yl)butane-2-sulfonamide or (2S,3R)-N-(5-((1s,3R)-3-chlorocyclobutyl)-4-(2,6-dimethoxyphenyl)-4H-1,2,4-triazol-3-yl)-3-(5-methylpyrimidin-2-yl)butane-2-sulfonamide]
EC50: 2.5 nM

Compound: COc1ncnc(OC)c1-n1c(NS(=O)(=O)[C@@H](C)[C@@H](OC(C)C)c2ncc(Cl)cn2)nnc1C1CCC1 [Example 89.0, (1S,2S)-1-(5-chloro-2-pyrimidinyl)-N-(5-cyclobutyl-4-(4,6-dimethoxy-5-pyrimidinyl)-4H-1,2,4-triazol-3-yl)-1-(2-propanyloxy)-2-propanesulfonamide]
EC50: 0.74 nM

Compound: COc1ncnc(OC)c1-n1c(NS(=O)(=O)[C@@H](C)[C@H](OC)c2ncc(Cl)cn2)nnc1C1CC2(COC2)C1 [Example 240.0, (1R,2S)-1-(5-chloro-2-pyrimidinyl)-N-(4-(4,6-dimethoxy-5-pyrimidinyl)-5-(2-oxaspiro[3.3]heptan-6-yl)-4H-1,2,4-triazol-3-yl)-1-methoxy-2-propanesulfonamide]
EC50: 71 nM

Compound: COc1cccc(OC)c1-n1c(NS(=O)(=O)[C@@H](C)[C@H](OC)c2ncc(Cl)cn2)nnc1[C@H]1C[C@H](OC)C1 (single isomer, unassigned) [Example 155.0, (1R,2S)-1-(5-chloropyrimidin-2-yl)-N-(4-(2,6-dimethoxyphenyl)-5-((1r,3S)-3-methoxycyclobutyl)-4H-1,2,4-triazol-3-yl)-1-methoxypropane-2-sulfonamide or (1R,2S)-1-(5-chloropyrimidin-2-yl)-N-(4-(2,6-dimethoxyphenyl)-5-((1s,3R)-3-methoxycyclobutyl)-4H-1,2,4-triazol-3-yl)-1-methoxypropane-2-sulfonamide]
EC50: 9.4 nM

Compound: COc1ncnc(OC)c1-n1c(NS(=O)(=O)[C@@H](C)[C@H](C)c2ncc(Cl)cn2)nnc1C1CCC1 [Example 85.0, (2S,3R)-3-(5-chloro-2-pyrimidinyl)-N-(5-cyclobutyl-4-(4,6-dimethoxy-5-pyrimidinyl)-4H-1,2,4-triazol-3-yl)-2-butanesulfonamide]
EC50: 1.7 nM

Compound: COc1cccc(OC)c1-n1c(NS(=O)(=O)[C@@H](C)[C@H](OC)c2ncc(Cl)cn2)nnc1[C@H]1C[C@H](Cl)C1 (single isomer, unassigned) [Example 153.0, (1R,2S)-1-(5-chloropyrimidin-2-yl)-N-(4-(2,6-dimethoxyphenyl)-5-((1r,3S)-3-chlorocyclobutyl)-4H-1,2,4-triazol-3-yl)-1-methoxypropane-2-sulfonamide or (1R,2S)-1-(5-chloropyrimidin-2-yl)-N-(4-(2,6-dimethoxyphenyl)-5-((1s,3R)-3-chlorocyclobutyl)-4H-1,2,4-triazol-3-yl)-1-methoxypropane-2-sulfonamide]
EC50: 1.5 nM

Compound: COc1cccc(OC)c1-n1c(NS(=O)(=O)[C@@H](C)[C@H](C)c2ncc(Cl)cn2)nnc1C1(c2ccccn2)CC1 [Example 125.0]
EC50: 400 nM
